Key:
[1] = target: Fibroblast growth factor receptor 4 (Homo sapiens) (UniProt P22455); assay: Inhibition of human FGFR4 at 1.82 nM by HotSpot assay relative to control
[2] = target: Serine/threonine-protein kinase PAK 3 (Homo sapiens) (UniProt O75914); assay: Inhibition of human PAK3 at 1.82 nM by HotSpot assay relative to control
[3] = target: T1, Calcium/calmodulin-dependent protein kinase type IV (Homo sapiens) (UniProt Q16566); assay: Inhibition of human CAMK4 at 1.82 nM by HotSpot assay relative to control
T1 sequence (whole entry): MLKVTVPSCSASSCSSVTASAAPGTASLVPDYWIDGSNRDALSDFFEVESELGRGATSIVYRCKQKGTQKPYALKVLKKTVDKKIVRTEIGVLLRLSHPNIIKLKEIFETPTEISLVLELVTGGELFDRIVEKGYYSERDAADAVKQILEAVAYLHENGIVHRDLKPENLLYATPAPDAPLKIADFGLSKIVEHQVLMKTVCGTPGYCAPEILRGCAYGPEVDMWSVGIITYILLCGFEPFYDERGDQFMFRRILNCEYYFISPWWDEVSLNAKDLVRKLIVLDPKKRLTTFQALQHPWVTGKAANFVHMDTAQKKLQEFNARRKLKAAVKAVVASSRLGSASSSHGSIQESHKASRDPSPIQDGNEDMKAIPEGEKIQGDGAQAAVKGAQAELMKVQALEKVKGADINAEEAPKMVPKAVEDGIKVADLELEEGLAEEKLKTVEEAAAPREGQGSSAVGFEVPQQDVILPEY

[4] = target: Protein kinase C eta type (Homo sapiens) (UniProt P24723); assay: Inhibition of human PKCeta at 1.82 nM by HotSpot assay relative to control
[5] = target: Protein kinase C gamma type (Homo sapiens) (UniProt P05129); assay: Inhibition of human PKCg at 1.82 nM by HotSpot assay relative to control
[6] = target: Homeodomain-interacting protein kinase 1 (Homo sapiens) (UniProt Q86Z02); assay: Inhibition of human HIPK1 at 18.6 nM by HotSpot assay relative to control
[7] = target: T2, Activin receptor type-1B (Homo sapiens) (UniProt P36896); assay: Inhibition of human ALK4 at 18.6 nM by HotSpot assay relative to control
T2 sequence (whole entry): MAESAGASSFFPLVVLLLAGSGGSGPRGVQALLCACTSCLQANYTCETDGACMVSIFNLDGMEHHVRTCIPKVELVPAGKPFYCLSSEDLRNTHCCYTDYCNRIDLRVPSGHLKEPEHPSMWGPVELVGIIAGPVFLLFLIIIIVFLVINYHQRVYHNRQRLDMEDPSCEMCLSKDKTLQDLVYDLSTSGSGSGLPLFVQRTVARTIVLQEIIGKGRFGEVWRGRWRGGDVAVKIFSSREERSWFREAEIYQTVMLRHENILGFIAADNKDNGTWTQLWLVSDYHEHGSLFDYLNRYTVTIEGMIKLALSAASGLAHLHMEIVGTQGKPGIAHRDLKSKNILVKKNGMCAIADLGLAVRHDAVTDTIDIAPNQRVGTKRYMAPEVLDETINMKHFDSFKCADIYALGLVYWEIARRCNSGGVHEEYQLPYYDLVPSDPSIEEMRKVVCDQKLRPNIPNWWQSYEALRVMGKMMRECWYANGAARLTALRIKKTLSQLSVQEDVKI

[8] = target: T3, Mitogen-activated protein kinase kinase kinase kinase 2 (Homo sapiens) (UniProt Q12851); assay: Inhibition of human GCK at 18.6 nM by HotSpot assay relative to control
T3 sequence (whole entry): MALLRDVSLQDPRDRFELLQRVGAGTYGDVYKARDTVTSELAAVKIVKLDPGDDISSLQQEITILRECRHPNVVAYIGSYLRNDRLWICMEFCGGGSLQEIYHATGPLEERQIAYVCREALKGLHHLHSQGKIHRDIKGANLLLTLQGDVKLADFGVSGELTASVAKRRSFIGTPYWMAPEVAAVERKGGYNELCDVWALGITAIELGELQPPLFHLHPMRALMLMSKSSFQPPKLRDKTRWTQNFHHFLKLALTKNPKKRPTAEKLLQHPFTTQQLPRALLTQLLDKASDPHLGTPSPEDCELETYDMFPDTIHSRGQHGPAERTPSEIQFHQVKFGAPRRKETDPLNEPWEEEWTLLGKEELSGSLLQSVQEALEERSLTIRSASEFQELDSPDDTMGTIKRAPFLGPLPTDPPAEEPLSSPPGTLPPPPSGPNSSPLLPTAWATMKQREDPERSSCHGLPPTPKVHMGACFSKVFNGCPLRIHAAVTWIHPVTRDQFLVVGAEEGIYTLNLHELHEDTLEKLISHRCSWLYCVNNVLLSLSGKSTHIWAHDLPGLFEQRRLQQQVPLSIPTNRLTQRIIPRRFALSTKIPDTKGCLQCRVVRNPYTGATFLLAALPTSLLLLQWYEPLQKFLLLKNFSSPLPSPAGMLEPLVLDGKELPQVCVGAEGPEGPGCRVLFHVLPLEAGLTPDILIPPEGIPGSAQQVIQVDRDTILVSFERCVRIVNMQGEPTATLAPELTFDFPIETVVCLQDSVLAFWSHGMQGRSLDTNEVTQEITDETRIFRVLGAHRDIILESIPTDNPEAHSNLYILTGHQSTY

[9] = target: Protein-tyrosine kinase 2-beta (Homo sapiens) (UniProt Q14289); assay: Inhibition of human PYK2 at 18.6 nM by HotSpot assay relative to control
[10] = target: Tyrosine-protein kinase Lyn (Homo sapiens) (UniProt P07948); assay: Inhibition of human LYN at 18.6 nM by HotSpot assay relative to control
[11] = target: LIM domain kinase 1 (Homo sapiens) (UniProt P53667); assay: Inhibition of human LIMK1 at 18.6 nM by HotSpot assay relative to control
Chain of LIM domain kinase 1 (Homo sapiens) (P53667 whole entry, looked up, the tested form may be a part): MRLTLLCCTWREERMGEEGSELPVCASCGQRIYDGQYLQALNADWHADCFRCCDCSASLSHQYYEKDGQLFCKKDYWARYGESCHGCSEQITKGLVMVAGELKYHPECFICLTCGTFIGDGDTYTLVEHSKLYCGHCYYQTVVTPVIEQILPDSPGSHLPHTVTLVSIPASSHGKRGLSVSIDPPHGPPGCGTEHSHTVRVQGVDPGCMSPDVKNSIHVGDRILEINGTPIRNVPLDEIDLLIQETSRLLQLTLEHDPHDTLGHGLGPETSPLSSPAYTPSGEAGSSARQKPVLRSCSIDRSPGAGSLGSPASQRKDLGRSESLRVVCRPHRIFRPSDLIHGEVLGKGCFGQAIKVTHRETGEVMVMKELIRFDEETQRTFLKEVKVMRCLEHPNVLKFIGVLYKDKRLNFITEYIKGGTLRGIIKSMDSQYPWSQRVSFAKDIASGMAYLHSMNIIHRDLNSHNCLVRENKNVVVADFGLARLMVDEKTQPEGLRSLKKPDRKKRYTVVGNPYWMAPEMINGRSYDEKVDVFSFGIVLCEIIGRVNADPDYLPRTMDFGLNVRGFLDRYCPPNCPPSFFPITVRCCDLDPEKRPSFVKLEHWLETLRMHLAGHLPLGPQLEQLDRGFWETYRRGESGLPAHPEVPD

Chain of Tyrosine-protein kinase Lyn (Homo sapiens) (P07948 2-512 limits assumed): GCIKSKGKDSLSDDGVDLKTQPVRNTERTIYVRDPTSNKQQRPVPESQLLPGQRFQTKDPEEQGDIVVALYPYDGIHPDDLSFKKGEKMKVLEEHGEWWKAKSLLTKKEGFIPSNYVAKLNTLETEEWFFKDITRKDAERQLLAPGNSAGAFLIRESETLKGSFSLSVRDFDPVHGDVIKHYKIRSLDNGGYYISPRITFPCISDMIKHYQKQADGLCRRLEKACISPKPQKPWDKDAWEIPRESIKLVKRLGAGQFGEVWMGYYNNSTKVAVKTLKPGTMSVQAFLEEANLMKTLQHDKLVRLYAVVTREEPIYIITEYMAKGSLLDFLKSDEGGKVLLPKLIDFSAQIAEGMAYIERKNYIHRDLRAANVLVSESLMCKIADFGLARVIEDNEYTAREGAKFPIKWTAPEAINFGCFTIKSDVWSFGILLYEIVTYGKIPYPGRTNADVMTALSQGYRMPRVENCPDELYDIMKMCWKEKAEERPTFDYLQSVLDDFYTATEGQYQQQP
Chain of Homeodomain-interacting protein kinase 1 (Homo sapiens) (Q86Z02 whole entry, looked up): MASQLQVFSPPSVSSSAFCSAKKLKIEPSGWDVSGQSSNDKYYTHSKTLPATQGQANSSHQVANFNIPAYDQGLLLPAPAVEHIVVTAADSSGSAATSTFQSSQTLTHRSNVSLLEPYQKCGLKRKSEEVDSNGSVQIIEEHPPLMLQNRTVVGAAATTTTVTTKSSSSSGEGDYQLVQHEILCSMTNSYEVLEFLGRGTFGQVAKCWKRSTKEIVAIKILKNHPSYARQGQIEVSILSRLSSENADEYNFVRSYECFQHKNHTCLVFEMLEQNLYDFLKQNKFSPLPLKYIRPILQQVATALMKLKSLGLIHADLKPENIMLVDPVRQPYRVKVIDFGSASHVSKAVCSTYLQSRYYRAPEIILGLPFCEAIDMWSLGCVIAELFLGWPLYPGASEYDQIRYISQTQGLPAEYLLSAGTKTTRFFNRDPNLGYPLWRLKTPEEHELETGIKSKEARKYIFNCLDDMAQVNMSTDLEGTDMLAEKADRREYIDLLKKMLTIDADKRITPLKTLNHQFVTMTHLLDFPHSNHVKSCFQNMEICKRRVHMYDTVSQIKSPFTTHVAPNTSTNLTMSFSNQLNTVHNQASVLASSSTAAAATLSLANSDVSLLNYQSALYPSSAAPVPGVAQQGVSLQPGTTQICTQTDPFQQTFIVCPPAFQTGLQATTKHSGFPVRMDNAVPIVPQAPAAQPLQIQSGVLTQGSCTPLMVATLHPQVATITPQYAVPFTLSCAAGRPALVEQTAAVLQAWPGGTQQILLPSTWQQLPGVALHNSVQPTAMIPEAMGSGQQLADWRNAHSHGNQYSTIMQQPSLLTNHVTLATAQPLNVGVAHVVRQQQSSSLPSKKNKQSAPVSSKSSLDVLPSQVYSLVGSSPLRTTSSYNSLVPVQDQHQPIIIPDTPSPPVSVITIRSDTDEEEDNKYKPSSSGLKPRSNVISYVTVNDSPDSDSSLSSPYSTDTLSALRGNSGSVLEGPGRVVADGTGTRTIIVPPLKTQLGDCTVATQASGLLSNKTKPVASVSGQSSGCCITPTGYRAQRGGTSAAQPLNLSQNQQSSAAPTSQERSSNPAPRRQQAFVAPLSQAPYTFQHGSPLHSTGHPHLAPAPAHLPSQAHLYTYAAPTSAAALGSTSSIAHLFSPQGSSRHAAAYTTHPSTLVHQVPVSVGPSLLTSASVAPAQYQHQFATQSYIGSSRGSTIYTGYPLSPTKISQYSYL
Chain of Serine/threonine-protein kinase PAK 3 (Homo sapiens) (O75914 whole entry, looked up): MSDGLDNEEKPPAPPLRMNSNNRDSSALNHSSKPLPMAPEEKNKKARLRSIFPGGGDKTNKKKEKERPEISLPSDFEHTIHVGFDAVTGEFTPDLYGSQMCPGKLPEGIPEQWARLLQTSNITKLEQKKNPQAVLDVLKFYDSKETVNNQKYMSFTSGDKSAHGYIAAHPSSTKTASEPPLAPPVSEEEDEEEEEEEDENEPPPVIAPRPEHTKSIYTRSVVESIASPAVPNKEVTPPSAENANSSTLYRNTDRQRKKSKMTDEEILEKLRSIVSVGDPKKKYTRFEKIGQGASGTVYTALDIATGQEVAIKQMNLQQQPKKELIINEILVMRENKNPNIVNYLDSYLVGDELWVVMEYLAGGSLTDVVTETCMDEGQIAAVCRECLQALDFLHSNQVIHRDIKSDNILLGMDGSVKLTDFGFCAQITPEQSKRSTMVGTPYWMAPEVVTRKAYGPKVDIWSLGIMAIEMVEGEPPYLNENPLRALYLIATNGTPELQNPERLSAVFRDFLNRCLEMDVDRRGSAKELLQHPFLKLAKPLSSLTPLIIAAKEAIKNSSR
Chain of Protein-tyrosine kinase 2-beta (Homo sapiens) (Q14289 whole entry, looked up): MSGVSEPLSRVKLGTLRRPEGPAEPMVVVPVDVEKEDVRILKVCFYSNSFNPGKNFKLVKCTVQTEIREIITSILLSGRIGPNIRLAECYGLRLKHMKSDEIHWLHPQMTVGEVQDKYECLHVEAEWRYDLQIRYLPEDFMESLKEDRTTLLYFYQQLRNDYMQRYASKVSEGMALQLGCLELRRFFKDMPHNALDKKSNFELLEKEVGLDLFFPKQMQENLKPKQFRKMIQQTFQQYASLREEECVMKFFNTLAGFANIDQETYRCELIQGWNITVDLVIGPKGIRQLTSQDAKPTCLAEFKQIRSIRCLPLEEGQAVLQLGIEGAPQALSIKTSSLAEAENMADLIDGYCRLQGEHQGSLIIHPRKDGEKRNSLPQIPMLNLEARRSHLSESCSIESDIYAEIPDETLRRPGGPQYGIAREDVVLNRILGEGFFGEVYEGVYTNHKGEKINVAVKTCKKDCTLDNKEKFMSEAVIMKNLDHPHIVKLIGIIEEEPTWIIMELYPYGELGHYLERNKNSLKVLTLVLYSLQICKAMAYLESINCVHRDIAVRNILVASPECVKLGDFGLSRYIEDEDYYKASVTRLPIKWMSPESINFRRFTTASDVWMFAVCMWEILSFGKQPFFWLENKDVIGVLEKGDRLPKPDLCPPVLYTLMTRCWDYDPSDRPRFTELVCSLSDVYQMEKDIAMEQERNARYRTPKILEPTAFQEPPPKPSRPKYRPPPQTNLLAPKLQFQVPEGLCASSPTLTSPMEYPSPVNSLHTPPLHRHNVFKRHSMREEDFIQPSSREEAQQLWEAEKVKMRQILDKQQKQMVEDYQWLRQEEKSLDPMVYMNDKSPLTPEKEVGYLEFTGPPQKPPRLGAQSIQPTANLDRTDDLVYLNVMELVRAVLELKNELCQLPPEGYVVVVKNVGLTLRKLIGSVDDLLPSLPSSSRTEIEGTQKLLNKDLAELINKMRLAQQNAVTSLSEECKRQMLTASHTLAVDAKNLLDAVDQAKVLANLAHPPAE
Chain of Fibroblast growth factor receptor 4 (Homo sapiens) (P22455 22-802 limits assumed): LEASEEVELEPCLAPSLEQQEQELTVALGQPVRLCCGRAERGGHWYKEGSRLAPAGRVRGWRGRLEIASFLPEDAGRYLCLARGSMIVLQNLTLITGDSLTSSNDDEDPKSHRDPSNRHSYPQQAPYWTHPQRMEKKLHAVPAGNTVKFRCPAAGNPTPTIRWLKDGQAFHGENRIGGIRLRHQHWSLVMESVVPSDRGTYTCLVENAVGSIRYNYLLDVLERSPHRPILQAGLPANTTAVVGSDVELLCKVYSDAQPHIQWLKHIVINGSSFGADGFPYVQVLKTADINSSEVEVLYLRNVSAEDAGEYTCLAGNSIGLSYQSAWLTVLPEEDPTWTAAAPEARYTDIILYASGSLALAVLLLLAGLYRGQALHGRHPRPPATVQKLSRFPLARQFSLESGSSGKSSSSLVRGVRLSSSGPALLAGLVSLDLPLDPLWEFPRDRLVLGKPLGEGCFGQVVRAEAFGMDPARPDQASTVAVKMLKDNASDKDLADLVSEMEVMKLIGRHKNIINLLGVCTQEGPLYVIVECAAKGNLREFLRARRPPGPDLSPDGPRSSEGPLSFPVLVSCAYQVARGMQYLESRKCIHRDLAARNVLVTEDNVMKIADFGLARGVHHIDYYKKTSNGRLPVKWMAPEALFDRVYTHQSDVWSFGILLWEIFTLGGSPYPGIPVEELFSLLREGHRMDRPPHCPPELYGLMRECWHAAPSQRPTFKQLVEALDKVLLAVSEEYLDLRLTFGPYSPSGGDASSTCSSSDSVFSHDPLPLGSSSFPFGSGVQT

SMILES | inhibition [1] [%] | inhibition [2] [%] | inhibition [3] [%] | inhibition [4] [%] | inhibition [5] [%] | inhibition [6] [%] | inhibition [7] [%] | inhibition [8] [%] | inhibition [9] [%] | inhibition [10] [%] | inhibition [11] [%]
C[C@@]1(C(=O)Nc2ccc(F)nc2)CCCN1c1nc(Nc2cc(C3CC3)n[nH]2)c2cccn2n1 | 6.74 | -2.89 | 3.45 | -0.87 | -7.52 |  |  |  |  |  | 
C[C@]1(O)C[C@@H](c2nc(-c3ccc4ccc(-c5ccccc5)nc4c3)c3c(N)nccn32)C1 |  |  |  |  |  | -4.32 | -0.44 | 1.94 | -4.64 | -0.99 | -8.11

From ChEMBL document CHEMBL5653615 (J Biol Chem, 2013)
